Results from patent US6930185B2, “Melanin-concentrating hormone antagonist” (Takeda Chemical Industries, Ltd., priority 2000, dated 2005).

SMILES | melting point
Cc1ccc(C2CCN(C(=O)Nc3ccc4nc(CN5CCCCC5)ccc4c3)CC2)cc1 [Example 64, 4-(4-Methylphenyl)-N-[2-(1-piperidinylmethyl)-6-quinolinyl]-1-piperidinecarboxamide] | 204 to 205 °C (dec.)
O=C(Nc1ccc2nc(CN3CCCCC3)ccc2c1)N1CCC(c2ccc(F)cc2)CC1 [Example 65, 4-(4-Fluorophenyl)-N-[2-(1-piperidinylmethyl)-6-quinolinyl]-1-piperidinecarboxamide] | 203 to 204 °C (dec.)
O=C(Nc1ccc2nc(CN3CCCCC3)ccc2c1)c1ccc(-c2ccc(F)cc2F)nc1 [Example 69, 6-(2,4-Difluorophenyl)-N-[2-(1-piperidinylmethyl)-6-quinolinyl]nicotinamide] | 182 to 183 °C
CC1(C)CCCC(C)(C)N1Cc1ccc2cc(NC(=O)N3CCC(c4ccc(Cl)cc4)CC3)ccc2n1 [Example 74, 4-(4-Chlorophenyl)-N-[2-[(2,2,6,6-tetramethyl-1-piperidinyl)methyl]-6-quinolinyl]-1-piperidinecarboxamide] | 203 to 204 °C
Cc1ccc(C2CCN(C(=O)Nc3ccc4nc(CN5C(C)(C)CCCC5(C)C)ccc4c3)CC2)cc1 [Example 75, 4-(4-Methylphenyl)-N-[2-[(2,2,6,6-tetramethyl-1-piperidinyl)methyl]-6-quinolinyl]-1-piperidinecarboxamide] | 200 to 202 °C
O=C(Nc1ccc2cc(CN3CCCC3)ccc2c1)N1CCC(c2ccc(F)cc2)CC1 [Example 99, 4-(4-Fluorophenyl)-N-[6-(1-pyrrolidinylmethyl)-2-naphthyl]-1-piperidinecarboxamide] | 209 to 211 °C
COc1ccc(C2CCN(C(=O)Nc3ccc4cc(CN5CCCC5)ccc4c3)CC2)cc1 [Example 100, 4-(4-Methoxyphenyl)-N-[6-(1-pyrrolidinylmethyl)-2-naphthyl]-1-piperidinecarboxamide] | 194 to 196 °C
O=C(Nc1ccc2cc(CN3CCCC3)ccc2c1)N1CCC(c2ccccc2)CC1 [Example 102, 4-Phenyl-N-[6-(1-pyrrolidinylmethyl)-2-naphthyl]-1-piperidinecarboxamide] | 193 to 195 °C
Cc1ccc(C2CCN(C(=O)Nc3ccc4cc(CN5CCCC5)ccc4c3)CC2)cc1 [Example 103, 4-Methylphenyl-N-[6-(1-pyrrolidinylmethyl)-2-naphthyl]-1-piperidinecarboxamide] | 210 to 212 °C
COc1ccc(C2CCN(C(=O)Nc3ccc4cc(CN5C(C)(C)CCCC5(C)C)ccc4c3)CC2)cc1 [Example 119, 4-(4-Methoxyphenyl)-N-[6-[(2,2,6,6-tetramethyl-1-piperidinyl)methyl]-2-naphthyl]-1-piperidinecarboxamide] | 164 to 166 °C
COc1ccc(-c2ccc(C(=O)Nc3ccc4cc(CN5C(C)(C)CCCC5(C)C)ccc4c3)cc2)cc1 [Example 120, 4′-Methoxy-N-[6-[(2,2,6,6-tetramethyl-1-piperidinyl)methyl]-2-naphthyl][1,1′-biphenyl]-4-carboxamide] | 212 to 214 °C
CC1(C)CCCC(C)(C)N1Cc1ccc2cc(NC(=O)c3ccc(-c4ccc(F)cc4)cc3)ccc2c1 [Example 121, 4′-Fluoro-N-[6-[(2,2,6,6-tetramethyl-1-piperidinyl)methyl]-2-naphthyl][1,1′-biphenyl]-4-carboxamide] | 238 to 241 °C

Now from value to compound:

melting point | SMILES
258 to 259 °C | CC1(C)CCCC(C)(C)N1Cc1ccc2cc(NC(=O)c3ccc(-c4ccc(Cl)cc4)nc3)ccc2n1 [Example 72, 6-(4-Chlorophenyl)-N-[2-[(2,2,6,6-tetramethyl-1-piperidinyl)methyl]-6-quinolinyl]nicotinamide]
246 to 247 °C | Cc1ccc(-c2ccc(C(=O)Nc3ccc4nc(CN5C(C)(C)CCCC5(C)C)ccc4c3)cn2)cc1 [Example 73, 6-(4-Methylphenyl)-N-[2-[(2,2,6,6-tetramethyl-1-piperidinyl)methyl]-6-quinolinyl]nicotinamide]
187 to 188 °C | C[C@@H]1CCC[C@H](C)N1Cc1ccc2cc(NC(=O)c3ccc(-c4ccc(F)cc4)cc3)ccc2n1 [Example 79, 4′-Fluoro-N-[2-[(cis-2,6-dimethyl-1-piperidinyl)methyl]-6-quinolinyl][1,1′-biphenyl]-4-carboxamide]
180 to 181 °C | C[C@@H]1CCC[C@H](C)N1Cc1ccc2cc(NC(=O)c3ccc(-c4ccccc4)cc3)ccc2n1 [Example 80, N-[2-[(cis-2,6-Dimethyl-1-piperidinyl)methyl]-6-quinolinyl][1,1′-biphenyl]-4-carboxamide]
198 to 199 °C (dec.) | Cc1ccc(-c2ccc(C(=O)Nc3ccc4nc(CN5[C@H](C)CCC[C@@H]5C)ccc4c3)cc2)cc1 [Example 81, 4′-Methyl-N-[2-[(cis-2,6-dimethyl-1-piperidinyl)methyl]-6-quinolinyl][1,1′-biphenyl]-4-carboxamide]
217 to 219 °C (dec.) | C[C@@H]1CCC[C@H](C)N1Cc1ccc2cc(NC(=O)c3ccc(-c4ccc(Cl)cc4)nc3)ccc2n1 [Example 83, 6-(4-Chlorophenyl)-N-[2-[(cis-2,6-dimethyl-1-piperidinyl)methyl]-6-quinolinyl]nicotinamide]
177 to 178 °C (dec.) | Cc1ccc(C2CCN(C(=O)Nc3ccc4nc(CN5[C@H](C)CCC[C@@H]5C)ccc4c3)CC2)cc1 [Example 86, 4-(4-Methylphenyl)-N-[2-[(cis-2,6-dimethyl-1-piperidinyl)methyl]-6-quinolinyl]-1-piperidinecarboxamide]
212 to 220 °C (dec.) | CC1=NCCN1Cc1ccc2cc(NC(=O)c3ccc(-c4ccccc4)cc3)ccc2n1 [Example 93, N-[2-[(2-Methyl-4,5-dihydro-1H-imidazol-1-yl)methyl]-6-quinolinyl][1,1′-biphenyl]-4-carboxamide]
212 to 216 °C (dec.) | O=C(Nc1ccc2nc(CN3CCN=C3c3ccccc3)ccc2c1)c1ccc(-c2ccccc2)cc1 [Example 94, N-[2-[(2-Phenyl-4,5-dihydro-1H-imidazol-1-yl)methyl]-6-quinolinyl][1,1′-biphenyl]-4-carboxamide]
124 to 126 °C (dec.) | O=C(Nc1ccc2nc(CN3CCCCC3c3cccnc3)ccc2c1)c1ccc(-c2ccc(Cl)cc2)cc1 (stereo not shown) [Example 116, 4′-Chloro-N-[2-[[2-(3-pyridinyl)-1-piperidinyl]-methyl]-6-quinolinyl][1,1′-biphenyl]-4-carboxamide]
172 to 174 °C | COC[C@@H]1CCCN1Cc1ccc2cc(NC(=O)c3ccc(-c4ccc(Cl)cc4)cc3)ccc2n1 [Example 117, 4′-Chloro-N-[2-[[(2S)-2-(methoxymethyl)pyrrolidinyl]-methyl]-6-quinolinyl][1,1′-biphenyl]-4-carboxamide]
163 to 166 °C | CC(C)(C)OC(=O)[C@@H]1CCCN1Cc1ccc2cc(NC(=O)c3ccc(-c4ccc(Cl)cc4)cc3)ccc2n1 [Example 118, Tert-butyl (2S)-1-[[6-[[(4′-chloro[1,1′-biphenyl]-4-yl)carbonyl]amino]-2-quinolinyl]methyl]-2-pyrrolidinecarboxylate]
235 to 237 °C | Cc1ccc(-c2ccc(C(=O)Nc3ccc4cc(CN5C(C)(C)CCCC5(C)C)ccc4c3)cc2)cc1 [Example 122, 4′-Methyl-N-[6-[(2,2,6,6-tetramethyl-1-piperidinyl)methyl]-2-naphthyl][1,1′-biphenyl]-4-carboxamide]
